Measured values published in US9494576B2, “Methods for detecting contaminants in solutions containing glucose polymers” (ROQUETTE FRERES, priority 2011, dated 2016).
Read-outs that look alike come from different tables or passages of the source.

Tests used:
NOD2 = NOD2 (Homo sapiens, UniProt Q9HC29); test: SEAP production by HEK-BLUE hNOD2 line (HEK-NOD2); assay type: cell-based
From the text: (§1) The HEK-BLUE cell lines (InvivoGen) are lines modified by stable transfection with vectors encoding innate immunity receptors. These cells are also cotransfected with a reporter gene which produces a secreted form of alkaline phosphatase (SEAP: secreted embryonic alkaline phosphatase), the synthesis of which is under the direct control of the signaling pathway associated with the receptor(s) expressed in the same cell line.
(§2) This line, which naturally expresses virtually all the innate immunity receptors, is used as a positive control in the tests.
(§3) The RAW-BLUE and HEK-BLUE cells are cultured according to the supplier's recommendations. In particular, the selection pressure for the plasmids encoding the inflammatory molecule receptors (TLR2 or NOD2) and encoding the SEAP is provided by adding, to the culture medium, the HEK-BLUE Selection/blasticidin antibiotics. At 75% confluence, the cells are resuspended at a cell density of 0.28×10^6 cells/ml. Before stimulation, 180 μl of the cell suspension are distributed into the culture wells (96-well plate), i.e. 50 000 cells/well. The cells are then stimulated for 24 h by adding 20 μl of the test samples (in ten-times concentrated form). The stimulation lasts from 16 to 24 h.
(§4) The production of SEAP in response to the contaminated molecules is estimated by measuring the phosphatase activity according to the protocol supplied by the manufacturer: 20 μl of culture supernatant are diluted in 180 μl of QUANTI-BLUE. The color develops at 37° C. and the reading is carried out, at various times, at 620 nm. The data are expressed as absorbance after subtraction of the background noise, obtained by adding the same volume of nonconditioned culture medium to the reaction medium of the enzyme.
In the new procedure referred to as without subculturing, the HEK-NOD2 cells are conditioned in wells (10 000/well) and cultured for three days. Before stimulation, the culture medium is removed and replaced with a medium containing 1% of FCS and the solutions to be assayed. In this case, the SEAP response is 5-6 times greater than the negative control, which is compatible with a test for detecting MDP in contaminated solutions (FIG. 12).
(§5) The following experimental conditions were selected: • final glucose polymer concentration: 37.5 mg/ml for the HEK-BLUE-cells, and 50 mg/ml for the RAW-BLUE cells, • enzymatic reaction: 50 μl of conditioned medium+150 μl of SEAP reagent, • minimum reaction time: 60 min.

THP-1 cells [1] = assay type: cell-based
Method: (§6) The THP-1 cells (88081201, ECACC) are cultured routinely in the laboratory.
(§7) For the pro-inflammatory activation experiments, the THP-1 cells are differentiated for 3 days in the presence of phorbol ester (PMA). In particular, the cells are placed in culture in 200 μl of complete medium in the presence of 20 nM of PMA for 72 h (final cell density: 0.75×10^6 cells/ml).
(§8) The differentiated THP-1 cells (0.75×10^6 cells/ml) are placed in culture in 200 μl of complete medium, and then incubated in the presence of the various test samples.
(§9) Each analysis is carried out in triplicate.
(§10) The cell supernatants are collected in order to assay the secreted cytokines after 8 h of stimulation for TNF-α, and 20 h for RANTES.
(§11) The ELISA assays are carried out according to the indications given by the supplier.

THP-1 cells [2] = test: Production of RANTES by differentiated (MDP-sensitized) THP-1 cells, ELISA; assay type: cell-based; settings: for synergistic effect on the production of RANTES: sensitizer added to PGN/LPS: MDP 10 μg/ml, f-MLP 1, 10, 100 nM, LPS 25 pg/ml; for Detection threshold / EC50: RANTES; for Detection threshold / EC50 / Sensitivity: without MDP; for Sensitivity: per g of polymer at 25 mg/ml
Method: as §6, §7, §8, §9, §10, §11
The following experimental conditions are selected: • final concentration of differentiated THP-1 cells: 0.75×10^6 cells/ml, […], • final glucose polymer concentration: 25 mg/ml, • response: ELISA assay of the production of RANTES after 20 h of stimulation.

HEK-BLUE Null2 line = test: SEAP production by HEK-BLUE Null2 control line (HEK-Null); assay type: cell-based
Method: as §2, §3, §4

mononuclear cells = settings: background statement, cited from earlier work
RAW-BLUE cells = test: SEAP production by RAW-BLUE line; assay type: cell-based, mouse; settings: for Detection threshold / EC50: RAW-BLUE line; for Sensitivity: per g of polymer at 50 mg/ml
Method: as §2, §3, §4, §5

TLR2 [3] = target: T1, TLR2 (Homo sapiens, UniProt O60603); test: SEAP production by HEK-BLUE hTLR2 line (HEK-TLR2); assay type: cell-based
Method: as §1, with “line. […]” for “line.”
as §3, §4, §5

TLR2 [4] = target: T1, TLR2; test: Peptidoglycan assay method with HEK-BLUE hTLR2 cells, with or without mutanolysin treatment; assay type: cell-based
Method: The assay is based on the specific recognition of PGNs by a line expressing the TLR2 receptor and on the production of an enzymatic activity that is measurable via the activation of the signaling pathway associated with TLR2.
The dose-response curve was produced with standard S. aureus PGN (FIG. 21).
The HEK-BLUE cells are incubated with increasing concentrations of standard, and the cell response is measured by quantifying the enzymatic activity produced.
The result is a conventional sigmoid cell response curve: • part (A) corresponds to the responses obtained with low concentrations of PGN, below those which give effective activation of TLR2. This nonlinear zone therefore corresponds to the threshold limit of detection of the method. In such a way as to include the variability of the method, this detection threshold is estimated at three times the value of the background noise (response obtained in the absence of stimulus). • part (B) is the most interesting since a linear response is observed. This effective-response zone makes it possible to determine a direct relationship between the cell response and the level of PGN. It is therefore the assaying zone; • part (C) corresponds to a saturation of the cell response in the presence of PGN concentrations which are too high. […]
The PGN assays are carried out on glucose polymer solutions. The sample requiring the PGN quantification is incubated with HEK-BLUE hTLR2 cells, and the cell response is measured by quantifying the enzymatic activity produced. The amount of PGN contained in the sample can be determined by referring to the dose-response curves. […]
The samples were treated in the presence of 2500 U/ml of mutanolysin for 16 h at 37° C., and then added to the HEK-TLR2 cells. The cell response was measured by following the activity of the SEAP produced, according to the conditions described in example 3. […]
The absorbance values were reported on the calibration curves established under the same conditions with the standard PGN (FIG. 23), so as to determine the PGN concentrations present in the glucose polymers.

[5] = test of resumption of growth, FIG. 8, supplier's culture procedure

Chain of NOD2 (Q9HC29 whole entry): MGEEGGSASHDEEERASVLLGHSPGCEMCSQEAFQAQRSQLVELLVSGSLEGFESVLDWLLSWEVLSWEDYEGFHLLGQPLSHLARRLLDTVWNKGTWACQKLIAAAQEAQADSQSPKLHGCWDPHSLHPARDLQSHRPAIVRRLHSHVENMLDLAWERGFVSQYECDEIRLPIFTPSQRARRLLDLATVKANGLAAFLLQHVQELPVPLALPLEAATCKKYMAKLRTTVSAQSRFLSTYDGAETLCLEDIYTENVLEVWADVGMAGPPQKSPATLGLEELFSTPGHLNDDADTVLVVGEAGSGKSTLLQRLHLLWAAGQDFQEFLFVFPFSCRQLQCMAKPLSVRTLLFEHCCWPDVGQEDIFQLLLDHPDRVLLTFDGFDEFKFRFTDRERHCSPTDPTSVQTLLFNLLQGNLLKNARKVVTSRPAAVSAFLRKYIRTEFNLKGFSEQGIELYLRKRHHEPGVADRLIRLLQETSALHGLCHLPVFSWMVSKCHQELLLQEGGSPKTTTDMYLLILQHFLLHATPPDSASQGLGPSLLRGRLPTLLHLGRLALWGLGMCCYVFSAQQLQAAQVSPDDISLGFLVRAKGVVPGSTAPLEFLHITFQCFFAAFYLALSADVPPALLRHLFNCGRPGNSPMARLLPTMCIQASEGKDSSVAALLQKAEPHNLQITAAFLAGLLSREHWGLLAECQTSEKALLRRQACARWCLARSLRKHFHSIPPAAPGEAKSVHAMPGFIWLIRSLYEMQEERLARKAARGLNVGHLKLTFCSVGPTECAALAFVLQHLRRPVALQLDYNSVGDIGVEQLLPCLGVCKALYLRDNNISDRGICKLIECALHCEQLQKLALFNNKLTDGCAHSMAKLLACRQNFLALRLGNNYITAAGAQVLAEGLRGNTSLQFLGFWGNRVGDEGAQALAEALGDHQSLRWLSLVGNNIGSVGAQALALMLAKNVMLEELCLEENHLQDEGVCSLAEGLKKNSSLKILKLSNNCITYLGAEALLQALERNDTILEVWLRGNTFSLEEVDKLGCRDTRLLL
T1 sequence (O60603 21-784): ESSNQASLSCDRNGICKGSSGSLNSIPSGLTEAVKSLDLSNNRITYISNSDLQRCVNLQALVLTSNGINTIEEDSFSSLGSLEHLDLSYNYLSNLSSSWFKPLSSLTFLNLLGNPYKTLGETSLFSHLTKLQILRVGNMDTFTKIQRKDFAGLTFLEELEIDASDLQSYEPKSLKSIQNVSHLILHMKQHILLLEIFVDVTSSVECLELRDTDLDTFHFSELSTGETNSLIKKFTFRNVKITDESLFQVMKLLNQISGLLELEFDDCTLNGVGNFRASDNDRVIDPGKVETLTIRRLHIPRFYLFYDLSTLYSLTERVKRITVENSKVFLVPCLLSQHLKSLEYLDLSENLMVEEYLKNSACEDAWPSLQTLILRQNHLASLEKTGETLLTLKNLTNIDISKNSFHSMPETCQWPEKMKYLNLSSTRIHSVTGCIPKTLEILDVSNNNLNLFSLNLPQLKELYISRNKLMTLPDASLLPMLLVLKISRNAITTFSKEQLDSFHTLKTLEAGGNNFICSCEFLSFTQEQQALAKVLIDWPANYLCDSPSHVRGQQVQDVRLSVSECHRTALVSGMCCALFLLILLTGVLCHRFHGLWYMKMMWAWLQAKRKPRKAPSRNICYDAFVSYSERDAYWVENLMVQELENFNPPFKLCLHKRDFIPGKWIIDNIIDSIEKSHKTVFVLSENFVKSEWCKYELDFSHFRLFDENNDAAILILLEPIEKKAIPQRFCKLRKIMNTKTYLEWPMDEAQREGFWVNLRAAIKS

CC(=O)N[C@H]1C(O)O[C@H](CO)[C@@H](O)[C@@H]1O[C@H](C)C(=O)N[C@@H](C)C(=O)N[C@H](CCC(=O)O)C(N)=O (mixture of isomers) [MDP, muramyl dipeptide]
Detection threshold (NOD2; HEK-NOD2 line): 1.5 ± 0.5 ng/mL | EC50 (NOD2; HEK-NOD2 line): 0.012 ± 0.006 µg/mL | Sensitivity (NOD2; per g of polymer at 37.5 mg/ml): 40 ± 13 ng/g | SEAP response relative to the negative control (NOD2; procedure without subculturing, 10 000 cells/well, FIG. 12): 5-6 times | SEAP response of HEK-NOD2 cells (NOD2; selected conditions, FIG. 16): respond effectively | SEAP response of HEK-NOD2 cells (NOD2; [5]): responds only very weakly | synergistic effect on the production of TNF-α (THP-1 cells [1]): not very marked | increase of the sensitivity of the THP-1 cells to LPS and PGN (factor) (THP-1 cells [2]; MDP 10 μg/ml): 5 | synergistic effect on the production of RANTES and of TNF-α in response to PGN and LPS (THP-1 cells [2]; minimum dose 1 μg/ml): does not induce a significant synergistic effect | synergistic effect on the production of RANTES (THP-1 cells [2]): clearly show a synergistic effect | SEAP response of HEK-Null cells (HEK-BLUE Null2 line): insensitive

Lipopolysaccharides [LPS]
concentration inducing a significant response (mononuclear cells): about 1 ng/ml | synergistic effect on the production of TNF-α (THP-1 cells [1]; sensitizer added to PGN/LPS: MDP 10 μg/ml, LPS 25 pg/ml): synergistic effect of the two agonists is visible | Detection threshold (THP-1 cells [2]): 10 ± 7 pg/mL | EC50 (THP-1 cells [2]): 0.0009 ± 0.0001 µg/mL | Sensitivity (THP-1 cells [2]): 400 ± 280 pg/g | synergistic effect on the production of RANTES (THP-1 cells [2]): synergistic effect of the two agonists is visible | SEAP response of RAW-BLUE cells to inflammatory molecules (RAW-BLUE cells): weak | detection threshold relative to that of the sensitized THP-1 cells (RAW-BLUE cells): approximately 50 times | Detection threshold (RAW-BLUE cells): 0.24 ± 0.06 ng/mL | EC50 (RAW-BLUE cells): >0.01 µg/mL | Sensitivity (RAW-BLUE cells): 4.8 ± 1.2 ng/g

Tumor Necrosis Factor alpha [TNF-α]
SEAP response of HEK-TLR2 cells to inflammatory molecules (TLR2 [3]): respond | SEAP response of HEK-NOD2 cells (NOD2; [5]): responds only very weakly | SEAP response of HEK-Null cells (HEK-BLUE Null2 line): respond

formyl-Met-Leu-Phe tripeptide [f-MLP]
synergistic effect on the production of RANTES (THP-1 cells [2]): no synergistic effect was observed

lipoteichoic acid [LTA]
SEAP response of HEK-TLR2 cells to inflammatory molecules (TLR2 [3]): weaker

peptidoglycans [PGN]
PGN levels detected by the HEK-TLR2 line (TLR2 [3]): below 2 ng/g of glucose polymer | SEAP response of HEK-TLR2 cells to inflammatory molecules (TLR2 [3]): responds effectively | reduction of reactivity for the HEK-TLR2 cells after passing through a 0.22 μm filter (TLR2 [3]): approximately 50% | sensitivity threshold relative to the sensitized THP-1 cells (TLR2 [3]): 50 times | Detection threshold (TLR2 [3]; HEK-TLR2 line): 0.07 ± 0.04 ng/mL | EC50 (TLR2 [3]; HEK-TLR2 line): 0.0031 ± 0.0025 µg/mL | SEAP response of HEK-TLR2 cells to inflammatory molecules (TLR2 [3]; listed as PUN): respond very effectively | Sensitivity (TLR2 [3]; per g of polymer at 37.5 mg/ml): 1.9 ± 1.1 ng/g | concentration required for a similar response, relative to LPS (mononuclear cells; w/w ratio): at least 100 times | reduction of the response of the HEK-TLR2 cells by mutanolysin treatment (TLR2 [4]; 2500 U/ml, 16 h, 37° C., absence of glucose polymer): more than 50% | response of the HEK-TLR2 cells after mutanolysin treatment (TLR2 [4]; in the presence of 7.5% of polymer): improved | response of the HEK-TLR2 cells after mutanolysin treatment (TLR2 [4]; in the presence of 37.5% of polymer): unchanged | EC50 (THP-1 cells [2]): 1.2 ± 0.7 µg/mL | Detection threshold (THP-1 cells [2]; response > 3 x SD of background noise): 14500 ± 8500 pg/mL | Sensitivity (THP-1 cells [2]): 580000 ± 340000 pg/g | SEAP response of RAW-BLUE cells to inflammatory molecules (RAW-BLUE cells): respond well | Detection threshold (RAW-BLUE cells): 2.1 ± 1.5 ng/mL | EC50 (RAW-BLUE cells): 0.21 ± 0.075 µg/mL | Sensitivity (RAW-BLUE cells): 42 ± 30 ng/g | SEAP response of HEK-Null cells (HEK-BLUE Null2 line): insensitive
